The nature of data set [1]: Phase 1 open-label study of the impact of fluvoxamine on the pharmacokinetics of pirfenidone in healthy subjects. The conditions noted are these: for Ratio of Day 11 AUC0-∞ to Day 1 AUC0-∞, Mean (SD) / Ratio of Day 11 AUC0-∞ to Day 1 AUC0-∞, Median (25th-75th): Day 11 with fluvoxamine vs Day 1 without; for AUC0-∞, Mean (SD) / AUC0-∞, Median (25th-75th): single 801-mg dose of pirfenidone, healthy subjects, n = 51, plasma.
Excerpt: Study Design. The study was a Phase 1, open-label, parallel-group study in healthy subjects. Fifty-four subjects were to be enrolled in two groups, consisting of 27 subjects who were smokers (Group 1) and 27 subjects who were nonsmokers (Group 2). […] Each group (smokers and nonsmokers) was to include a minimum of nine females and nine males, and attempts were to be made to enroll equal numbers of each sex in each group.

For data set [2], the system named is multiple other CYPs (1A1, 2A6, 2B6, 2C8, 2C9, 2C18, 2C19, 2D6, 2E1, 2J2, 3A4, 3A5, 4A11, and 4F2). Description: In vitro metabolism of pirfenidone by CYP isoforms. Format: in vitro ADME. As to conditions: each isoform. The text has this: There are no unique human metabolites.
In a further data set the target is T1, CYP1A2 (Homo sapiens, UniProt P05177).
T1 sequence (P05177 1-516): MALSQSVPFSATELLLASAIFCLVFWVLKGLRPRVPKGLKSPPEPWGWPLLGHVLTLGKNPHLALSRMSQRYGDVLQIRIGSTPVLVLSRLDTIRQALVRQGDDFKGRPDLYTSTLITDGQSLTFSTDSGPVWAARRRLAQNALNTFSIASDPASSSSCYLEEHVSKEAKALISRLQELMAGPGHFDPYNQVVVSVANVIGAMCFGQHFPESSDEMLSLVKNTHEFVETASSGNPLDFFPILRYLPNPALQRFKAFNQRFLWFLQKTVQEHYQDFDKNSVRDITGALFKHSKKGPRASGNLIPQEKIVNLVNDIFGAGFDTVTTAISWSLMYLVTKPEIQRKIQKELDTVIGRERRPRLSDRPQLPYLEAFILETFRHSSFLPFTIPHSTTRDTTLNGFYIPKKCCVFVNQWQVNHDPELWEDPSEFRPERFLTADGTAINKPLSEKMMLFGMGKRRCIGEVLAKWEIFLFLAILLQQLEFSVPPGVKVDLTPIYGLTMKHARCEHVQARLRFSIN
Nature of the data set: In vitro metabolism of pirfenidone by CYP isoforms. Type of data set: in vitro ADME.

The mark [3] stands for this setting: Study Day 11: Post-Fluvoxamine (fluvoxamine Days 2-11).

`O=C(O)c1ccc(=O)n(-c2ccccc2)c1` [5-Carboxy-Pirfenidone, 5 carboxy-pirfenidone]: the “Ratio of Cmax on Day 11 to the Cmax on Day 1, mean (95% CI)” value in data set [1] (Day 11 post-fluvoxamine vs Day 1 pre-fluvoxamine, all subjects) is 0.369 (0.349-0.390). For the same compound, in data set [1] (Day 11 vs Day 1), the “Effect of fluvoxamine co-administration on AUC0-∞ (significance, paired t-test)” value is “not a statistically significant effect”. In addition, in data set [1] (Nonsmokers, N 25), the “Ratio of Day 11 AUC0-∞ to Day 1 AUC0-∞, Mean (SD)” value is recorded as 1.05 (0.114) and the “Ratio of Day 11 AUC0-∞ to Day 1 AUC0-∞, Median (25th-75th)” value is given as 1.03 (0.978-1.11). Also, in data set [1] (Smokers, N 26), the “Ratio of Day 11 AUC0-∞ to Day 1 AUC0-∞, Mean (SD)” value is listed as 1.12 (0.0951) and the “Ratio of Day 11 AUC0-∞ to Day 1 AUC0-∞, Median (25th-75th)” value is reported as 1.13 (1.04-1.19). In addition, in data set [1] (Study Day 1: Pre-Fluvoxamine), the “AUC0-∞, Mean (SD)” value was 29.3 (8.22) mg · hr/L and the “AUC0-∞, Median (25th-75th)” value was 26.9 (22.0-33.7) mg · hr/L. For the same compound, in data set [1] (setting [3]), the “AUC0-∞, Mean (SD)” value is on record as 31.7 (8.96) mg · hr/L and the “AUC0-∞, Median (25th-75th)” value is recorded as 29.4 (25.4-36.5) mg · hr/L.

Consider `Cc1ccc(=O)n(-c2ccccc2)c1` [Pirfenidone, 5-methyl-1-phenyl-2-(1H)-pyridone], for which, in data set [2], the “Share of pirfenidone metabolism by each other CYP” value was below 13%. Further, the “Share of pirfenidone metabolism by CYP1A2” value on CYP1A2 is reported as “approx 48%”.

Values taken from patent US8318780B2 (Intermune, Inc., priority 2009, dated 2012).
